Data as given in ChEMBL document CHEMBL3885881, “DrugMatrix”.

Species: Rattus norvegicus
Test: DrugMatrix - Regimen: Daily Repeat
Type: toxicity, organism-based, Sprague-Dawley
Parameters: regimen Daily Repeat, gender Male, age 6-8 weeks
Conditions: in vivo, ip, 60 mg/kg, route intraperitoneal, dose level High, vehicle 100 % PBS; for BASOPHIL / EOSINOPHIL / ERYTHROCYTE COUNT / HEMATOCRIT / HEMOGLOBIN / LEUKOCYTE COUNT / LYMPHOCYTE / MEAN CORPUSCULAR HEMOGLOBIN / MEAN CORPUSCULAR HEMOGLOBIN CONCENTRATION / MEAN CORPUSCULAR VOLUME / MONOCYTE / NEUTROPHIL / PLATELET COUNT: tissue Blood; for ALANINE AMINOTRANSFERASE / ALBUMIN / ALKALINE PHOSPHATASE / ASPARTATE AMINOTRANSFERASE / BLOOD UREA NITROGEN / CARBON DIOXIDE / CHLORIDE / CHOLESTEROL / CREATINE PHOSPHOKINASE / CREATININE / GLUCOSE / LACTATE DEHYDROGENASE / LIPASE / PHOSPHORUS / POTASSIUM / SODIUM / TOTAL BILIRUBIN / TOTAL PROTEIN / URIC ACID: tissue Plasma

C[C@H]1C(=O)O[C@@H]2CCN3CC=C(COC(=O)[C@](C)(O)[C@]1(C)O)[C@H]23 [MONOCROTALINE]
BASOPHIL (72 h, time 3 day): 1.7% | EOSINOPHIL (72 h, time 3 day): 1% | ERYTHROCYTE COUNT (72 h, time 3 day): 6.77 x10E6/uL | HEMATOCRIT (72 h, time 3 day): 46.53% | HEMOGLOBIN (72 h, time 3 day): 14.7 G/DL | LEUKOCYTE COUNT (72 h, time 3 day): 8.87 x10E3/uL | LYMPHOCYTE (72 h, time 3 day): 84.3% | MEAN CORPUSCULAR HEMOGLOBIN (72 h, time 3 day): 21.73 pg | MEAN CORPUSCULAR HEMOGLOBIN CONCENTRATION (72 h, time 3 day): 31.63 G/DL | MEAN CORPUSCULAR VOLUME (72 h, time 3 day): 68.73 fL | MONOCYTE (72 h, time 3 day): 1.9% | NEUTROPHIL (72 h, time 3 day): 9.57% | PLATELET COUNT (72 h, time 3 day): 1156.67 x10E3/uL | ALANINE AMINOTRANSFERASE (72 h, time 3 day): 33.67 u/L | ALBUMIN (72 h, time 3 day): 4.27 G/DL | ALKALINE PHOSPHATASE (72 h, time 3 day): 425.33 u/L | ASPARTATE AMINOTRANSFERASE (72 h, time 3 day): 77.33 u/L | BLOOD UREA NITROGEN (72 h, time 3 day): 16 mg/dL | CARBON DIOXIDE (72 h, time 3 day): 30 mmol/L | CHLORIDE (72 h, time 3 day): 104.33 MEQ/L | CHOLESTEROL (72 h, time 3 day): 79 mg/dL | CREATINE PHOSPHOKINASE (72 h, time 3 day): 394.33 u/L | CREATININE (72 h, time 3 day): 0.47 mg/dL | GLUCOSE (72 h, time 3 day): 166.33 mg/dL | LACTATE DEHYDROGENASE (72 h, time 3 day): 66 u/L | LIPASE (72 h, time 3 day): 14.67 u/L | PHOSPHORUS (72 h, time 3 day): 12.57 mg/dL | POTASSIUM (72 h, time 3 day): 7.2 MEQ/L | SODIUM (72 h, time 3 day): 148.33 MEQ/L | TOTAL BILIRUBIN (72 h, time 3 day): 0.47 mg/dL | TOTAL PROTEIN (72 h, time 3 day): 6.57 G/DL | URIC ACID (72 h, time 3 day): 1.77 mg/dL | BASOPHIL (120 h, time 5 day): 0.4% | EOSINOPHIL (120 h, time 5 day): 0.6% | ERYTHROCYTE COUNT (120 h, time 5 day): 7.1 x10E6/uL | HEMATOCRIT (120 h, time 5 day): 48.3% | HEMOGLOBIN (120 h, time 5 day): 14.93 G/DL | LEUKOCYTE COUNT (120 h, time 5 day): 10.69 x10E3/uL | LYMPHOCYTE (120 h, time 5 day): 91.33% | MEAN CORPUSCULAR HEMOGLOBIN (120 h, time 5 day): 21.03 pg | MEAN CORPUSCULAR HEMOGLOBIN CONCENTRATION (120 h, time 5 day): 30.93 G/DL | MEAN CORPUSCULAR VOLUME (120 h, time 5 day): 68.03 fL | MONOCYTE (120 h, time 5 day): 1.63% | NEUTROPHIL (120 h, time 5 day): 5.2% | PLATELET COUNT (120 h, time 5 day): 1323.67 x10E3/uL | ALANINE AMINOTRANSFERASE (120 h, time 5 day): 48 u/L | ALBUMIN (120 h, time 5 day): 4.1 G/DL | ALKALINE PHOSPHATASE (120 h, time 5 day): 488 u/L | ASPARTATE AMINOTRANSFERASE (120 h, time 5 day): 69 u/L | BLOOD UREA NITROGEN (120 h, time 5 day): 13 mg/dL | CARBON DIOXIDE (120 h, time 5 day): 30 mmol/L | CHLORIDE (120 h, time 5 day): 108 MEQ/L | CHOLESTEROL (120 h, time 5 day): 65.67 mg/dL | CREATINE PHOSPHOKINASE (120 h, time 5 day): 139 u/L | CREATININE (120 h, time 5 day): 0.23 mg/dL | GLUCOSE (120 h, time 5 day): 152.33 mg/dL | LACTATE DEHYDROGENASE (120 h, time 5 day): 44.67 u/L | LIPASE (120 h, time 5 day): 13.33 u/L | PHOSPHORUS (120 h, time 5 day): 14.7 mg/dL | POTASSIUM (120 h, time 5 day): 6.77 MEQ/L | SODIUM (120 h, time 5 day): 155 MEQ/L | TOTAL BILIRUBIN (120 h, time 5 day): 0.2 mg/dL | TOTAL PROTEIN (120 h, time 5 day): 6.33 G/DL | URIC ACID (120 h, time 5 day): 1.63 mg/dL | BASOPHIL ([…], time 14 day): 0.38% | EOSINOPHIL ([…], time 14 day): 0.48% | ERYTHROCYTE COUNT ([…], time 14 day): 8.25 x10E6/uL | HEMATOCRIT ([…], time 14 day): 49.54% | HEMOGLOBIN ([…], time 14 day): 16.32 G/DL | LEUKOCYTE COUNT ([…], time 14 day): 14.35 x10E3/uL | LYMPHOCYTE ([…], time 14 day): 85.94% | MEAN CORPUSCULAR HEMOGLOBIN ([…], time 14 day): 19.8 pg | MEAN CORPUSCULAR HEMOGLOBIN CONCENTRATION ([…], time 14 day): 32.96 G/DL | MEAN CORPUSCULAR VOLUME ([…], time 14 day): 60.04 fL | MONOCYTE ([…], time 14 day): 1.94% | NEUTROPHIL ([…], time 14 day): 9.64% | PLATELET COUNT ([…], time 14 day): 1232.8 x10E3/uL | ALANINE AMINOTRANSFERASE ([…], time 14 day): 40.6 u/L | ALBUMIN ([…], time 14 day): 4.46 G/DL | ALKALINE PHOSPHATASE ([…], time 14 day): 403.4 u/L | ASPARTATE AMINOTRANSFERASE ([…], time 14 day): 73.6 u/L | BLOOD UREA NITROGEN ([…], time 14 day): 15.2 mg/dL | CARBON DIOXIDE ([…], time 14 day): 30.8 mmol/L | CHLORIDE ([…], time 14 day): 102.2 MEQ/L | CHOLESTEROL ([…], time 14 day): 89.2 mg/dL | CREATINE PHOSPHOKINASE ([…], time 14 day): 155.8 u/L | CREATININE ([…], time 14 day): 0.44 mg/dL | GLUCOSE ([…], time 14 day): 145 mg/dL | LACTATE DEHYDROGENASE ([…], time 14 day): 118.6 u/L | LIPASE ([…], time 14 day): 18.2 u/L | PHOSPHORUS ([…], time 14 day): 9.42 mg/dL | POTASSIUM ([…], time 14 day): 6.64 MEQ/L | SODIUM ([…], time 14 day): 148.8 MEQ/L | TOTAL BILIRUBIN ([…], time 14 day): 0.56 mg/dL | TOTAL PROTEIN ([…], time 14 day): 7.2 G/DL | URIC ACID ([…], time 14 day): 2.16 mg/dL
